Assay results as given in patent US12226424B2, “Target protein degradation compounds, their anti-tumor use, their intermediates and use of intermediates” (ShanghaiTech University, priority 2018, dated 2025).
Read-outs that look alike come from different tables or passages of the source. Each block holds one molecule with its values, some of them ahead of it.

Columns and labels:
[1] = tested on: MV-4-11 cells; assay: Half inhibitory concentration (IC50) on BET-expressing tumor cells, CCK-8, MV-4-11
[2] = biological target: ALK protein (Homo sapiens, UniProt Q9UM73); assay: Western-blot half degradation concentration (DC50) of ALK protein in H3122 cells; format: cell-based; conditions: 24 h drug treatment, read-out: DC50 (nM)/ H3122 cell line
Experimental: ALK-positive SR cells (human large cell immunoblastic lymphoma) were purchased from the American Type Culture Collection (ATCC); H3122 cells (human non-small cell lung cancer) were from the Shanghai University of Science and Technology Lin Haifan's research group.
The cells used in this present disclosure were cultured in a 37° C. incubator containing 5% CO2.
DC50 (drug concentration corresponding to protein degradation to 50%) calculation: according to the gray value of the corresponding Western blotting band after drug treatment, fitting the relationship curve between drug concentration and gray value to calculate the drug concentration range corresponding to half of the gray value.

[3] = tested on: K562 cells (BCR-ABL positive); assay: Half inhibitory concentration (IC50) on tumor cells, CCK-8, K562; conditions: Homo sapiens, K562, 48 h, read-out: IC50 (nM)/K562 cell line
Experimental: Determination of Half Inhibitory Concentration (IC50) of PROTAD Compounds on Tumor Cells
K562 cells were seeded in 100 μL of RPMI1640 complete medium at a density of 20,000 cells/well. 100 μL of the inoculated cells were treated with 100 μL diluted PROTAD compound of the present disclosure to be tested at 9 successively decreasing concentrations (starting at the highest concentration of 10 μM; 3-fold serial dilutions). After the cells were treated with the tested drugs for 48 hours, the cell viability determination was performed in accordance with CCK-8 reagent operating instructions. The negative control was DMSO, and positive control was a commercial inhibitor. After CCK-8 treatment for 2 h, the value of O.D.450 was measured using a microplate reader.

[4] = Homo sapiens, MV4-11, read-out: IC50 (nM)/MV-4-11 cell line, MV-4-11 cells, 48/72 h, CCK-8
[5] = read-out: IC50 (nM)/MV-4-11 cell line, MV-4-11 cells, 48/72 h, CCK-8

Chain of ALK protein (Q9UM73 with tags, fused parts or gaps): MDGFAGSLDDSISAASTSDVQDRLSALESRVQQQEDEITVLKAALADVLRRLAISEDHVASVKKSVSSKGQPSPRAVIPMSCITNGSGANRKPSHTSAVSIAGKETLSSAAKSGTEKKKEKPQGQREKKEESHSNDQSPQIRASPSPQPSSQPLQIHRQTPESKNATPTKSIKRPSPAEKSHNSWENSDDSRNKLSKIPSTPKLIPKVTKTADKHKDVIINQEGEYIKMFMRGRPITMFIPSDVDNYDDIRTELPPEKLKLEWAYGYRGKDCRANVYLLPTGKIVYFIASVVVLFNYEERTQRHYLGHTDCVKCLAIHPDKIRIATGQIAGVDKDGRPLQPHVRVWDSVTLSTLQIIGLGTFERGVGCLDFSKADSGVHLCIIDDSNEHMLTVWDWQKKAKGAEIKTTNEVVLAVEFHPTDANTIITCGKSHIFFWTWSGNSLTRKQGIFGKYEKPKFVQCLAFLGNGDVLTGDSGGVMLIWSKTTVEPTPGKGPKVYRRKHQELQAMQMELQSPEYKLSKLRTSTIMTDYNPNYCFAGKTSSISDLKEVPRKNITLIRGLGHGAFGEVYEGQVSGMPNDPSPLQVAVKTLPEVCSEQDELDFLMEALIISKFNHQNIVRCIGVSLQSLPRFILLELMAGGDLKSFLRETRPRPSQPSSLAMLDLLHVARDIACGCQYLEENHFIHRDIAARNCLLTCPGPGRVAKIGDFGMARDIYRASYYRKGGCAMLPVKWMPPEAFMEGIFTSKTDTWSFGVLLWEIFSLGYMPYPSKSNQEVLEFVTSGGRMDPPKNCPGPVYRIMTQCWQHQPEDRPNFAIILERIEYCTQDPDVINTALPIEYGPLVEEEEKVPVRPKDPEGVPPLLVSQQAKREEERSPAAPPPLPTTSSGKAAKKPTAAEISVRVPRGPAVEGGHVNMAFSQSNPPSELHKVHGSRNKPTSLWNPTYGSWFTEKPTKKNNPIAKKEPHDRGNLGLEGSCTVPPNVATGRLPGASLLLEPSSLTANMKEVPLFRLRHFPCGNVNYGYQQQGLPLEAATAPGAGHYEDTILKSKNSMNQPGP

SMILES: Cc1sc2c(c1C)C(c1ccc(Cl)cc1)=N[C@@H](CC(=O)NCCN1CCNCC1)c1nnc(C)n1-2 [SIAIS213130]
- IC50 [1, 4]: 29.8 nM
- IC50 [1, 5]: 17.7 nM

SMILES: Cc1sc2c(c1C)C(c1ccc(Cl)cc1)=N[C@@H](CC(=O)NCCN1CCN(CCCSc3cccc4c3CN(C3CCC(=O)NC3=O)C4=O)CC1)c1nnc(C)n1-2 (stereo partly drawn) [SIAIS213136, 2-((S)-4-(4-chlorophenyl)-2,3,9-trimethyl-6H-thieno[3,2-f][1,2,4]triazolo[4,3-a][1,4]diazepin-6-yl)-N-(2-(4-(3-((2-(2,6-dioxopiperidin-3-yl)-1-oxoisoindolin-4-yl)thio)propyl)piperazin-1-yl)ethyl)acetamide]
- IC50 [1, 4]: 0.068 nM
- IC50 [1, 5]: 0.04 nM

SMILES: Cc1sc2c(c1C)C(c1ccc(Cl)cc1)=N[C@@H](CC(=O)N1CCNCC1)c1nnc(C)n1-2 [SIAIS213113]
- IC50 [1, 4]: 21.6 nM
- IC50 [1, 5]: 12.9 nM

SMILES: CCc1cc2c(cc1N1CCN(C(=O)CCSc3cccc4c3C(=O)N(C3CCC(=O)NC3=O)C4=O)CC1)C(C)(C)c1[nH]c3cc(C#N)ccc3c1C2=O (stereo not shown) [SIAIS164069, 8-(4-(3-((2-(2,6-dioxopiperidin-3-yl)-1,3-dioxoisoindolin-4-yl)thio)propanoyl)piperazin-1-yl)-9-ethyl-6,6-dimethyl-11-oxo-6,11-dihydro-5H-benzo[b]carbazole-3-carbonitrile]
- DC50 [2]: 100 to 500 nM

SMILES: Cc1sc2c(c1C)C(c1ccc(Cl)cc1)=N[C@@H](CC(=O)N1CCN(CCCSc3cccc4c3CN(C3CCC(=O)NC3=O)C4=O)CC1)c1nnc(C)n1-2 (stereo partly drawn) [SIAIS213117, 3-(4-((3-(4-(2-((S)-4-(4-chlorophenyl)-2,3,9-trimethyl-6H-thieno[3,2-f][1,2,4]triazolo[4,3-a][1,4]diazepin-6-yl)acetyl)piperazin-1-yl)propyl)thio)-1-oxoisoindolin-2-yl)piperidine-2,6-dione]
- IC50 [1, 4]: 0.063 nM
- IC50 [1, 5]: 0.041 nM

SMILES: Cc1sc2c(c1C)C(c1ccc(Cl)cc1)=N[C@@H](CC(=O)NCCN1CCN(CCCCCSc3cccc4c3CN(C3CCC(=O)NC3=O)C4=O)CC1)c1nnc(C)n1-2 (stereo partly drawn) [SIAIS213133, 2-((S)-4-(4-chlorophenyl)-2,3,9-trimethyl-6H-thieno[3,2-f][1,2,4]triazolo[4,3-a][1,4]diazepin-6-yl)-N-(2-(4-(5-((2-(2,6-dioxopiperidin-3-yl)-1-oxoisoindolin-4-yl)thio)pentyl)piperazin-1-yl)ethyl)acetamide]
- IC50 [1, 4]: 0.036 ± 0.045 nM

SMILES: Cc1nc(Nc2ncc(C(=O)Nc3c(C)cccc3Cl)s2)cc(N2CCN(CCCSc3cccc4c3CN(C3CCC(=O)NC3=O)C4=O)CC2)n1 (stereo not shown) [SIAIS171181, N-(2-chloro-6-methylphenyl)-2-((6-(4-(3-((2-(2,6-dioxopiperidin-3-yl)-1-oxoisoindolin-4-yl)thio)propyl)piperazin-1-yl)-2-methylpyrimidin-4-yl)amino)thiazole-5-carboxamide]
- IC50 [3]: 0.09 nM

SMILES: Cc1sc2c(c1C)C(c1ccc(Cl)cc1)=N[C@@H](CC(=O)NCCN1CCN(CCCCSc3cccc4c3CN(C3CCC(=O)NC3=O)C4=O)CC1)c1nnc(C)n1-2 (stereo partly drawn) [SIAIS213139, 2-((S)-4-(4-chlorophenyl)-2,3,9-trimethyl-6H-thieno[3,2-f][1,2,4]triazolo[4,3-a][1,4]diazepin-6-yl)-N-(2-(4-(4-((2-(2,6-dioxopiperidin-3-yl)-1-oxoisoindolin-4-yl)thio)butyl)piperazin-1-yl)ethyl)acetamide]
- IC50 [1, 4]: 0.027 ± 0.006 nM

SMILES: Cc1sc2c(c1C)C(c1ccc(Cl)cc1)=N[C@@H](CC(=O)NCCOCCSc1cccc3c1CN(C1CCC(=O)NC1=O)C3=O)c1nnc(C)n1-2 (stereo partly drawn) [SIAIS213100, 2-((S)-4-(4-chlorophenyl)-2,3,9-trimethyl-6H-thieno[3,2-f][1,2,4]triazolo[4,3-a][1,4]diazepin-6-yl)-N-(2-(2-((2-(2,6-dioxopiperidin-3-yl)-1-oxoisoindolin-4-yl)thio)ethoxy)ethyl)acetamide]
- IC50 [1, 4]: 0.5 ± 0.1 nM

Second part, the molecule after the results:

- IC50 [1, 4]: 0.084 nM
- IC50 [1, 5]: 0.051 nM
SMILES: Cc1sc2c(c1C)C(c1ccc(Cl)cc1)=N[C@@H](CC(=O)N1CCN(CCCCSc3cccc4c3CN(C3CCC(=O)NC3=O)C4=O)CC1)c1nnc(C)n1-2 (stereo partly drawn) [SIAIS213138, 3-(4-((4-(4-(2-((S)-4-(4-chlorophenyl)-2,3,9-trimethyl-6H-thieno[3,2-f][1,2,4]triazolo[4,3-a][1,4]diazepin-6-yl)acetyl)piperazin-1-yl)butyl)thio)-1-oxoisoindolin-2-yl)piperidine-2,6-dione]

- DC50 [2]: 63 nM
SMILES: CCc1cc2c(cc1N1CCN(C(=O)CCCCSc3cccc4c3C(=O)N(C3CCC(=O)NC3=O)C4=O)CC1)C(C)(C)c1[nH]c3cc(C#N)ccc3c1C2=O (stereo not shown) [SIAIS164072, 8-(4-(5-((2-(2,6-dioxopiperidin-3-yl)-1,3-dioxoisoindolin-4-yl)thio)pentanoyl)piperazin-1-yl)-9-ethyl-6,6-dimethyl-11-oxo-6,11-dihydro-5H-benzo[b]carbazole-3-carbonitrile]

- IC50 [3]: 5.98 nM
SMILES: Cc1ccc(C(=O)Nc2ccc(CN3CCN(C(=O)CCCCCCSc4cccc5c4CN(C4CCC(=O)NC4=O)C5=O)CC3)c(C(F)(F)F)c2)cc1C#Cc1cnc2cccnn12 (stereo not shown) [SIAIS220056, N-(4-((4-(7-((2-(2,6-dioxopiperidin-3-yl)-1-oxoisoindolin-4-yl)thio)heptanoyl)piperazin-1-yl)methyl)-3-(trifluoromethyl)phenyl)-3-(imidazo[1,2-b]pyridazin-3-ylethynyl)-4-methylbenzamide]

- DC50 [2]: 100 to 500 nM
SMILES: CCc1cc2c(cc1N1CCN(C(=O)CCCCCCSc3cccc4c3C(=O)N(C3CCC(=O)NC3=O)C4=O)CC1)C(C)(C)c1[nH]c3cc(C#N)ccc3c1C2=O (stereo not shown) [SIAIS164073, 8-(4-(7-((2-(2,6-dioxopiperidin-3-yl)-1,3-dioxoisoindolin-4-yl)thio)heptanoyl)piperazin-1-yl)-9-ethyl-6,6-dimethyl-11-oxo-6,11-dihydro-5H-benzo[b]carbazole-3-carbonitrile]

- IC50 [3]: 5.58 nM
SMILES: Cc1ccc(C(=O)Nc2ccc(CN3CCN(C(=O)CCCCCSc4cccc5c4CN(C4CCC(=O)NC4=O)C5=O)CC3)c(C(F)(F)F)c2)cc1C#Cc1cnc2cccnn12 (stereo not shown) [SIAIS220055, N-(4-((4-(6-((2-(2,6-dioxopiperidin-3-yl)-1-oxoisoindolin-4-yl)thio)hexanoyl)piperazin-1-yl)methyl)-3-(trifluoromethyl)phenyl)-3-(imidazo[1,2-b]pyridazin-3-ylethynyl)-4-methylbenzamide]

- DC50 [2]: 100 to 500 nM
SMILES: CCc1cc2c(cc1N1CCN(C(=O)CCCSc3cccc4c3C(=O)N(C3CCC(=O)NC3=O)C4=O)CC1)C(C)(C)c1[nH]c3cc(C#N)ccc3c1C2=O (stereo not shown) [SIAIS164070, 8-(4-(4-((2-(2,6-dioxopiperidin-3-yl)-1,3-dioxoisoindolin-4-yl)thio)butanoyl)piperazin-1-yl)-9-ethyl-6,6-dimethyl-11-oxo-6,11-dihydro-5H-benzo[b]carbazole-3-carbonitrile]

- DC50 [2]: 204 nM
SMILES: CCc1cc2c(cc1N1CCN(C(=O)CCCCCSc3cccc4c3C(=O)N(C3CCC(=O)NC3=O)C4=O)CC1)C(C)(C)c1[nH]c3cc(C#N)ccc3c1C2=O (stereo not shown) [SIAIS164071, 8-(4-(6-((2-(2,6-dioxopiperidin-3-yl)-1,3-dioxoisoindolin-4-yl)thio)hexanoyl)piperazin-1-yl)-9-ethyl-6,6-dimethyl-11-oxo-6,11-dihydro-5H-benzo[b]carbazole-3-carbonitrile]

- IC50 [3]: 1370 nM
SMILES: COc1cc(Nc2c(C#N)cnc3cc(OCCCN4CCN(C(=O)CCCCCSc5cccc6c5C(=O)N(C5CCC(=O)NC5=O)C6=O)CC4)c(OC)cc23)c(Cl)cc1Cl (stereo not shown) [SIAIS151172, 4-((2,4-dichloro-5-methoxyphenyl)amino)-7-(3-(4-(6-((2-(2,6-dioxopiperidin-3-yl)-1,3-dioxoisoindolin-4-yl)thio)hexanoyl)piperazin-1-yl)propoxy)-6-methoxyquinoline-3-carbonitrile]

- IC50 [3]: 12.8 nM
SMILES: Cc1ccc(C(=O)Nc2ccc(CN3CCN(C(=O)CCCCCCSc4cccc5c4C(=O)N(C4CCC(=O)NC4=O)C5=O)CC3)c(C(F)(F)F)c2)cc1C#Cc1cnc2cccnn12 (stereo not shown) [SIAIS220050, N-(4-((4-(7-((2-(2,6-dioxopiperidin-3-yl)-1,3-dioxoisoindolin-4-yl)thio)heptanoyl)piperazin-1-yl)methyl)-3-(trifluoromethyl)phenyl)-3-(imidazo[1,2-b]pyridazin-3-ylethynyl)-4-methylbenzamide]

- IC50 [3]: 2.97 nM
SMILES: Cc1ccc(C(=O)Nc2ccc(CN3CCN(C(=O)CCSc4cccc5c4C(=O)N(C4CCC(=O)NC4=O)C5=O)CC3)c(C(F)(F)F)c2)cc1C#Cc1cnc2cccnn12 (stereo not shown) [SIAIS220046, N-(4-((4-(3-((2-(2,6-dioxopiperidin-3-yl)-1,3-dioxoisoindolin-4-yl)thio)propanoyl)piperazin-1-yl)methyl)-3-(trifluoromethyl)phenyl)-3-(imidazo[1,2-b]pyridazin-3-ylethynyl)-4-methylbenzamide]

- IC50 [3]: 4.06 nM
SMILES: Cc1ccc(C(=O)Nc2ccc(CN3CCN(C(=O)CCCCSc4cccc5c4C(=O)N(C4CCC(=O)NC4=O)C5=O)CC3)c(C(F)(F)F)c2)cc1C#Cc1cnc2cccnn12 (stereo not shown) [SIAIS220048, N-(4-((4-(5-((2-(2,6-dioxopiperidin-3-yl)-1,3-dioxoisoindolin-4-yl)thio)pentanoyl)piperazin-1-yl)methyl)-3-(trifluoromethyl)phenyl)-3-(imidazo[1,2-b]pyridazin-3-ylethynyl)-4-methylbenzamide]
